Converted amounts (≈) assume the structure as drawn. “And” between values parts separate entries of the source, which are not always exact repeats. Equal entries are not always repeated. Where two headings read alike, the source gives them in different places.
Legend:
[1] = Safety of tumescent drug delivery: subcutaneous infiltration of 20 ml tumescent solutions; conditions: for ecchymosis / local tenderness upon palpation / stinging upon injection: subcutaneous TI, 20 ml, 6 of 6 subjects
Experimental: We studied 6 subjects over 6 days after subcutaneous infiltration of a 20 ml of tumescent solutions of acyclovir and 20 ml of tumescent gentamicin with 20 ml of subcutaneous normal saline and 20 ml of subcutaneous bacteriostatic saline as controls.

[2] = mixed together in a saline solution for IV delivery; 8° C.; cited from earlier work
[3] = test system: Staphylococcus aureus (MRSA) ATCC 33592; conditions: combined test product Lidocaine+Cefazolin
Experimental: (§1) Following inoculation, survival of test microorganisms was determined.

[4] = test system: Staphylococcus aureus (MRSA) ATCC 33592; format: cell-based
Description: Determinations of MBC followed the method described in “Report on the Working Party on Antibiotic Sensitivity Testing of the British Society of Antimicrobial Chemotherapy: A Guide to Sensitivity Testing.”

[5] = test system: Staphylococcus aureus (MRSA) ATCC 33592; test: microbe, parasite or virus in culture; conditions: 24 h, read-out: MIC end point
Experimental: as §1

[6] = for adverse local or systemic effects after subcutaneous tumescent infiltration: dilute drug in TAD solution; for AUC / Cmax: Table 16B
Description: Five pharmacokinetic studies each involved one IVAD procedure and one or two TAD procedures or a concomitant TAD+IVAD procedure. […] The AUC∞ and Cmax with TAD and with IVAD were compared.
The protocol received institutional review board approval and written informed consent was obtained prior to each research procedure. We compared tumescent antibiotic delivery (TAD) and intravenous antibiotic delivery (IVAD) with respect to concentration-time profile, AUC∞, Cmax and T>MIC.
Only after a prospective patient had requested liposuction surgery was the person offered the opportunity to participate in this research. Volunteer subjects were offered liposuction at no cost.
Exclusion criteria were: current significant health problems, history or evidence of HIV or Hepatitis C infection and […] of drugs that block cytochrome P450 3A4 or 1A2 or impair hemostasis.
Each of the 5 studies consisted of one IV antibiotic delivery (IVAD) procedure and one or two TAD infiltration procedures. In individual subjects, procedures were performed at least one week apart.
Metronidazole for IV delivery is available as 500 mg in 100 ml.
The discomfort of tumescent infiltration was minimized by a sequential infiltration technique: first using a spinal needle to infiltrate a relatively small volume of TAD sufficient to provide minimal anesthesia to allow comfortable insertion of blunt-tipped 16 gauge tumescent infiltration cannulas that provide large volume infiltration. The spinal needle and blunt-tipped infiltration cannulas were inserted through the skin via 1 mm adits made by a 1 mm skin biopsy punch. All patients were fully awake and received no parenteral sedation.
Sample Collection: After […], only serum concentrations were measured. After TAD both serum and TISF concentrations were measured. IVAD was achieved via an antecubital vein. Serum samples were obtained via an indwelling IV catheter in the contralateral antecubital vein.
A two-syringe sampling technique first removed 2 mL of blood, which was discarded, and then 10 mL of blood was obtained in a second syringe for drug assay. After each blood sample the IV catheter was flushed with 2 ml of saline and then 0.5 mL of heparin (10 units/mL).
Sequential samples of tumescent adipose tissue (10 ml to 20 ml) were obtained by the hand-held syringe liposuction technique. Sampling began at time T0 immediately after completing TAD infiltration and continued every 1 to 2 hours until the subject experienced significant discomfort as the result of diminishing local anesthesia. Samples of the subcutaneous tissue aspirate were centrifuged. The supranatant fat was discarded.
Data Analysis: We recorded the effect of varying the mg dose and mg/L concentration of antibiotics within TAD solutions between procedures in individual subjects and between different subjects.
Linear regression analysis was used to determine the correlation (coefficient of determination R2) between the antibiotic concentration (mg/L) in a TAD solution and Cmax in the infranatant liposuctioned subcutaneous tissue TISF. After TAD and after IVAD, Cmax in serum was determined by inspection of the sequential assays. AUC∞ was determined by the trapezoid rule.
At the time when each sample of TISF was obtained, patients were examined and questioned about signs and symptoms of subcutaneous tissue toxicity including unusual soreness, tenderness, discoloration, swelling at sites of subcutaneous tumescent infiltration. […] One week after TAD patients were questioned by telephone about any signs and symptoms of subcutaneous tissue toxicity at the sites of TAD.

[7] = test system: platelet function; test: Bleeding time and bleeding area before and after tumescent lidocaine exposure (Duke method); format: in vivo, human; conditions: post-op tumescent lidocaine exposure
Experimental: The skin of the left and right thigh of a subject is cleaned and allowed to dry. […] Simultaneous 4 mm deep puncture wounds are made to the same area of the left and right thighs with disposable lancets. The puncture sites are blotted with filter paper every 30 seconds, until bleeding stops and the bleeding time for each thigh is recorded. The bleeding times of the left and right thigh are compared to determine if administration of TLAnti increases bleeding time. Normal bleeding time measured by the Duke method is 1 to 3 minutes.
In a preliminary experiment, bleeding time and bleeding area were measured in a patient before and after tumescent lidocaine exposure. […] In contrast, there was a 40% increase in Average Bleeding Area (BA). Bleeding Area (BA) was a more sensitive and a more specific test for platelet function compared to Bleeding Time (BT). […] In otherwords, TAD may reduce the risk of both post-operative surgical site infection and post-operative thromboembolism.

[8] = test system: human neutrophils; conditions: cited from earlier work
[9] = adults; TLA without liposuction
[10] = test system: platelet aggregation induced by ADP, epinephrine and collagen; conditions: cited from earlier work
[11] = commercial lidocaine (1%) with epinephrine (1:100,000); cited from earlier work
[12] = Abdomen, TISF, TAD, 172 mg/L, TAD dose 600 mg
[13] = Abdomen, serum, TAD, 172 mg/L, TAD dose 600 mg

Nc1nc2c(ncn2COCCO)c(=O)[nH]1 [Acyclovir]
ecchymosis [1]: no ecchymosis
local tenderness upon palpation [1]: no local tenderness upon palpation
stinging upon injection [1]: no stinging upon injection

Cc1nnc(SCC2=C(C(=O)O)N3C(=O)[C@@H](NC(=O)Cn4cnnn4)[C@H]3SC2)s1 [Cefazolin]
chemically stable for [2]: at least 72 hours
potency of Cefazolin against MRSA in the presence of Lidocaine [3]: not inhibited by the presence of Lidocaine
MRSA survival (MBC test) ([4]; 62.5 mg/L, Day 1, MRSA Inoculum 4.7 × 10^5 CFU/ml): +
MRSA survival (MBC test) ([4]; 62.5 mg/L, Day 2, MRSA Inoculum 4.4 × 10^5 CFU/ml): +
MRSA survival (MBC test) ([4]; 125 mg/L, Day 1, MRSA Inoculum 4.7 × 10^5 CFU/ml): +
MRSA survival (MBC test) ([4]; 125 mg/L, Day 2, MRSA Inoculum 4.4 × 10^5 CFU/ml): +
MRSA survival (MBC test) ([4]; 250 mg/L, Day 1, MRSA Inoculum 4.7 × 10^5 CFU/ml): 0
MRSA survival (MBC test) ([4]; 250 mg/L, Day 2, MRSA Inoculum 4.4 × 10^5 CFU/ml): 0
MIC [5]: 125 µg/mL (≈ 275 µM)

CNC[C@H](O)c1ccc(O)c(O)c1 [Epinephrine]
adverse local or systemic effects after subcutaneous tumescent infiltration [6]: no adverse local or systemic effects

CCN(CC)CC(=O)Nc1c(C)cccc1C [Lidocaine]
adverse local or systemic effects after subcutaneous tumescent infiltration [6]: no adverse local or systemic effects
Average Bleeding Area (BA) ([7]; Patient 1 (control BA = 541)): BA = 759
Average Bleeding Time (BT) ([7]; Patient 1 (control BT = 6)): BT = 5.75
Bleeding Time BT × 2 ([7]; Patient 1, single tests T3, T4): 10 and 13
MRSA survival (MBC test) ([4]; 1,000 mg/L, Day 1, MRSA Inoculum 4.7 × 10^5 CFU/ml): +
MRSA survival (MBC test) ([4]; 1,000 mg/L, Day 2, MRSA Inoculum 4.4 × 10^5 CFU/ml): +
MRSA survival (MBC test) ([4]; 5,000 mg/L, Day 2, MRSA Inoculum 4.4 × 10^5 CFU/ml): +
MRSA survival (MBC test) ([4]; 10,000 mg/L, Day 2, MRSA Inoculum 4.4 × 10^5 CFU/ml): 0
reactive oxygen species (ROS) production by human neutrophils ([8]; concentrations 100-fold higher than safe serum lidocaine concentrations (≤5 μg/ml)): effectively reduced reactive oxygen species (ROS) production
effect on ROS ([8]; therapeutic serum lidocaine concentrations): no effect on ROS
maximum safe dosage (estimated) [9]: 30 mg/kg
lidocaine concentration that consistently inhibits in-vitro platelet aggregation ([10]; aggregation induced by ADP, epinephrine and collagen): ≥ 0.5 mg/mL
effect on platelet aggregation induced by ADP [10]: inhibit platelet aggregation induced by ADP
effect on platelet aggregation ([10]; safe systemic concentrations (e.g. ≤6 micrograms/ml)): no effect on platelet aggregation
dosage limitation approved by the FDA for infiltration local anesthesia [11]: 7 mg/kg

Cc1ncc([N+](=O)[O-])n1CCO [Metronidazole]
Cmax in subcutaneous TISF after TAD+IVAD relative to serum after IVAD alone ([6]; 600 mg as TAD (400 mg) + IVAD (200 mg) vs 600 mg IVAD alone): 10 times
Cmax in TISF after TAD relative to Cmax in serum after IVAD ([6]; TAD 500 mg vs IVAD 500 mg): 24.7 times
AUC [6, 12]: 1032 µg·h/mL
Cmax [6, 12]: 160000 ng/mL
AUC [6, 13]: 81 µg·h/mL
Cmax [6, 13]: 4800 ng/mL
AUC ([6]; serum, IVAD, dose 600 mg): 127 µg·h/mL
Cmax ([6]; serum, IVAD, dose 600 mg): 14000 ng/mL
adverse local or systemic effects after subcutaneous tumescent infiltration [6]: no adverse local or systemic effects
concentration-time profiles of cefazolin and metronidazole in TISF after TAD compared ([6]; equal mg doses and equal mg/L concentrations in the TAD solution): identical
initial period in which serum concentrations were greater after IVAD than after TAD; beyond it TAD greater ([6]; serum): 10 h
chemically stable for [2]: at least 72 hours

CCOC(=O)c1ccc(N)cc1 [benzocaine]
effect on platelet aggregation induced by ADP [10]: inhibit platelet aggregation induced by ADP

CCCCN1CCCCC1C(=O)Nc1c(C)cccc1C (stereo not shown) [bupivacaine]
effect on platelet aggregation induced by ADP [10]: inhibit platelet aggregation induced by ADP

Gentamicin
clinically significant adverse effects of subcutaneous injection in a dilute tumescent solution ([1]; conclusion): without any clinically significant adverse effects
ecchymosis [1]: no ecchymosis
local tenderness upon palpation [1]: no local tenderness upon palpation
stinging upon injection [1]: no stinging upon injection

Reference: US11241412B2 (priority 2015, dated 2022)
